# Experiments:
# [1] = system: H1299 cell line; experiment: In vitro anticancer effect against H1299 cell line (MTT assay); format: cell-based; settings: Homo sapiens, NCI-H1299
# Experimental: (§1) The A549 cells described in section 1 of Experimental Materials were placed in a 24-well culture plate at 1×10^4 cells/well, followed by cultivation in DMEM supplemented with 10% FBS at 37° C. and 5% CO2. The A549 cells in the wells were respectively treated with the free ganetespib test solutions and the CHC-ganetespib test solutions. Specifically, 200 μL of a respective test solution was added into a corresponding well containing the A549 cells. The A549 cells which were not treated with the free ganetespib test solutions and the CHC-ganetespib test solutions served as a normal control. After the treatment, cultivation was conducted for 48 hours at 37° C. and 5% CO2.
# (§2) The respective resulting culture was subjected to washing twice with PBS after removal of the liquid in the well, and was subjected to determination of cell viability by virtue of the 3-(4,5-dimethylthiazol-2-yl)-2,5-diphenyltetrazoli-umbromide (MTT) assay. Specifically, a suitable amount of a MTT solution (having a MTT concentration of 1.9 mg/mL) was added to the respective culture, followed by incubation for 4 hours. The liquid in the well was removed, and dimethylsulfoxide (DMSO) was added into the well to dissolve formazan dye. Absorbance of the mixture in the well at 450 nm (0D450) was measured using a microplate reader (Tecan Sunrise, Switzerland). The cell viability (%) was calculated by substituting the absorbance into the following equation (2): D=(E/F)×100 (2) • D=cell viability (%) • E=OD450 of respective culture • F=OD450 of normal control
# (§3) IC50 (half maximal inhibitory concentration) of the free ganetespib and the CHC-ganetespib particle agasint A549 cell line was determined based on the free ganetespib concentrations and the CHC-ganetespib particle concentrations, respectively, as well as the cell viability resulting from such concentrations.
# The in vitro anticancer effect of the free ganetespib and the CHC-ganetespib particle agasint H1299 cell line was determined generally according to the method described in section B of this example, except that the H1299 cells described in section 1 of Experimental Materials were placed in a 24-well culture plate at 5×10^4 cells/well, followed by cultivation in RPMI medium supplemented with 10% FBS.
# [2] = system: A549 cell line; experiment: In vitro anticancer effect against A549 cell line (MTT assay); format: cell-based; settings: Homo sapiens
# Experimental: as §1, §2, §3
smiles,measurement,setting,value
"CC(C)c1cc(-c2nnc(O)n2-c2ccc3c(ccn3C)c2)c(O)cc1O [Free ganetespib, 4-[5-hydroxy-4-(1-methyl-1H-indol-5-yl)-4H-1,2,4-triazol-3-yl]-6-(propan-2-yl)benzene-1,3-diol]",viability at 0.0015625 µg/mL,"[1]; H1299, 1.5625 ng/mL, 48 hours",93%
same,viability at 0.003125 µg/mL,"[1]; H1299, 3.125 ng/mL, 48 hours",85%
same,viability at 0.00625 µg/mL,"[1]; H1299, 6.25 ng/mL, 48 hours",55%
same,viability at 0.01 µg/mL,"[1]; H1299, 10 ng/mL, 48 hours",48%
same,viability at 0.02 µg/mL,"[1]; H1299, 20 ng/mL, 48 hours",23%
same,IC50,"[1]; H1299, 48 hours, MTT",10.3 ng/mL
same,viability at 0.0015625 µg/mL,"[2]; A549, 1.5625 ng/mL, 48 hours",98%
same,viability at 0.003125 µg/mL,"[2]; A549, 3.125 ng/mL, 48 hours",70%
same,viability at 0.00625 µg/mL,"[2]; A549, 6.25 ng/mL, 48 hours",52%
same,viability at 0.0125 µg/mL,"[2]; A549, 12.5 ng/mL, 48 hours",40%
same,viability at 0.025 µg/mL,"[2]; A549, 25 ng/mL, 48 hours",30%
same,IC50,"[2]; A549, 48 hours, MTT",8.8 ng/mL
